Laboratory results reported in paper PMC7251123, “CX-5461 activates the DNA damage response and demonstrates therapeutic efficacy in high-grade serous ovarian cancer” (Nature Communications, 2020).
“And” between values parts separate entries of the source, which are not always exact repeats. Identical values can stand only once. Like-named read-outs stand apart in the source and are kept apart here.

How the values were obtained:
OV90 = assay: Cell proliferation dose response (IncuCyte ZOOM), 48 h; type: cell-based; details: Homo sapiens, OV-90; OV90, 48 h; read-out: GI50 (concentration inducing 50% reduction in cell proliferation)
Method: (§1) The in vitro effects of CX-5461 on human OVCA cells were evaluated using a panel of 32 established human OVCA cell lines. These cell lines were selected to be representative of a range of histologic OVCA subtypes (Supplementary Table 1). Increasing concentrations (1 nM–10 μM) of CX-5461 were used to assess the concentration of drug that induced a 50% reduction in cell proliferation (GI50) at 48 hours (h). […] There was no statistically significant correlation between TP53 mutation status and sensitivity to CX-5461 (Supplementary Table 1, Fig. 1b). The efficacy of growth inhibition by CX-5461 correlated with a higher rate of basal rDNA transcription in the sensitive compared with the resistant OVCA cell lines (Fig. 1c).
(§2) Fig. 1 Sensitivity of ovarian cancer (OVCA) cell lines to CX-5461. a CX-5461 doses that induce 50% growth inhibition (GI50) at 48 hours. Error bars represent mean ± standard deviation (SD). […]
(§3) For assessing OVCA cells’ sensitivity to CX-5461, dose response curves were generated for each cell line by plating cells in 96-well plates, culturing them for 24 hours and then treating them with either vehicle or increasing concentrations of drug (0, 0.001, 0.003, 0.01, 0.03, 0.1, 0.3, 1, 3, 10 and 30 μM CX-5461) for 48 h. Cell number was assessed using the IncuCyte ZOOM imaging system (Essen BioScience). […] During this time the degree of confluency was measured every 24 h. […]

OVCAR3 = assay: as above; type: cell-based; details: Homo sapiens, OVCAR-3; OVCAR3, 48 h; read-out: GI50 (concentration inducing 50% reduction in cell proliferation)
Method: as §1, §2, §3

Pol I transcription = assay: Inhibition of Pol I transcription: 47S precursor rRNA levels by quantitative RT-PCR after 1 h treatment; type: cell-based, human; details: for 47S precursor rRNA level, fold change relative to vehicle-treated controls: individual replicates; for IC50: Homo sapiens
Method: Fig. 1 Sensitivity of ovarian cancer (OVCA) cell lines to CX-5461. a CX-5461 doses that induce 50% growth inhibition (GI50) at 48 hours. Error bars represent mean ± standard deviation (SD). Asterisks denote mutated TP53 status. […] Information regarding each cell lines source, mean G1_50 values, SD and N values are outlined in Supplementary Table 1. […] Statistical analysis was performed using a two-sided Mann–Whitney test. Error bars represent mean ± SD. c Baseline rDNA transcription rates of OVCA cell lines (listed in (d)), as determined by quantitative real-time PCR (qRT-PCR) analysis using primers specific to the external transcribed spacer 5’ETS (+413–521 bp) relative to the transcription start site (TSS). Expression levels in each cell line were normalised to Vimentin mRNA and expressed as fold change relative to TOV112D cells. Each dot represents the mean value of n = 3 biologically independent experiments per cell line (Individual data points are provided in Supplementary Data 4). Error bars represent mean ± SD. Statistical analysis was performed using a two-tailed unpaired t test. d Dose-response curves of 47S precursor rRNA levels measured by quantitative RT-PCR. OVCA cell lines were treated with vehicle or increasing drug concentrations of CX-5461 (0.001, 0.01, 0.03, 0.1, 0.3, 1 and 3 μM) for 1 h before RNA was harvested. Expression levels were normalised to Vimentin mRNA and expressed as fold change relative to vehicle-treated controls. Shown are the mean of n = 3 independent biological experiments for each cell line. (Individual data points are provided in Supplementary Data 4). e The mean inhibitory concentration values that led to 50% transcription inhibition (IC50) (of n = 3 biologically independent experiments for each cell line) from D are presented (Individual data points are provided in Supplementary Data 4). Error bars represent mean ± SD. Statistical analysis was performed using a two-sided Mann–Whitney test.
For Reverse-transcription qPCR analysis, cells were lysed, RNA extracted, and first-strand cDNA synthesized using random hexamer primers (Promega, C1181) and Superscript III (Invitrogen,18080044). Quantitative PCR (qPCR) was performed in duplicate using the FAST SYBR Green dye (Applied Biosystems, 4385610) on the StepOnePlus real-time PCR system (Applied Biosystems). Primer sequences are listed in (Supplementary Table 3).
Dose-response curves of 4 7S precursor rRNA levels (Figure 1D) measured by quantitative RT-PCR after 1h treatment. Expression levels
were normalised to Vimentin mRNA and expressed as fold change relative to vehicle-treated controls.
IC50 doses (Figure 1E) were determined from dose response curves in Figure 1D
using GraphPad Prism version 8.

[1] = parameters: method as in PMID 31092402; details: Phase I CX-5461 dose escalation study ref 16; cited from earlier work

Compound: Cc1cnc(CNC(=O)c2c(=O)c3ccc(N4CCCN(C)CC4)nc3n3c2sc2ccccc23)cn1 [CX-5461]
- GI50 (OV90): 5170 nM
- GI50 (OVCAR3): 12 nM
- 47S precursor rRNA level, fold change relative to vehicle-treated controls (Pol I transcription; A2780, CX-5461 0.00000001 M, 1 h): 1.227 and 1.156 and 0.5552
- 47S precursor rRNA level, fold change relative to vehicle-treated controls (Pol I transcription; A2780, CX-5461 0.00000003 M, 1 h): 1.079 and 0.6056 and 0.5354
- 47S precursor rRNA level, fold change relative to vehicle-treated controls (Pol I transcription; A2780, CX-5461 0.0000001 M, 1 h): 0.7784 and 0.3051 and 0.7248
- 47S precursor rRNA level, fold change relative to vehicle-treated controls (Pol I transcription; A2780, CX-5461 0.0000003 M, 1 h): 0.4946 and 0.2868 and 0.2848
- 47S precursor rRNA level, fold change relative to vehicle-treated controls (Pol I transcription; A2780, CX-5461 0.000001 M, 1 h): 0.1884 and 0.1928 and 0.2616
- 47S precursor rRNA level, fold change relative to vehicle-treated controls (Pol I transcription; A2780, CX-5461 0.000003 M, 1 h): 0.1746 and 0.05092 and 0.1316
- 47S precursor rRNA level, fold change relative to vehicle-treated controls (Pol I transcription; A2780, CX-5461 1E-09 M, 1 h): 1.211 and 0.7921 and 0.6449
- 47S precursor rRNA level, fold change relative to vehicle-treated controls (Pol I transcription; EFO21, CX-5461 0.00000001 M, 1 h): 1.115 and 1.095 and 1.792
- 47S precursor rRNA level, fold change relative to vehicle-treated controls (Pol I transcription; EFO21, CX-5461 0.00000003 M, 1 h): 1.11 and 1.692 and 0.987
- 47S precursor rRNA level, fold change relative to vehicle-treated controls (Pol I transcription; EFO21, CX-5461 0.0000001 M, 1 h): 0.7444 and 0.9773 and 0.668
- 47S precursor rRNA level, fold change relative to vehicle-treated controls (Pol I transcription; EFO21, CX-5461 0.0000003 M, 1 h): 0.2419 and 0.3103 and 0.414
- 47S precursor rRNA level, fold change relative to vehicle-treated controls (Pol I transcription; EFO21, CX-5461 0.000001 M, 1 h): 0.2002 and 0.2399 and 0.3839
- 47S precursor rRNA level, fold change relative to vehicle-treated controls (Pol I transcription; EFO21, CX-5461 0.000003 M, 1 h): 0.1871 and 0.2673 and 0.0006867
- 47S precursor rRNA level, fold change relative to vehicle-treated controls (Pol I transcription; EFO21, CX-5461 1E-09 M, 1 h): 1.492 and 1.313 and 0.8129
- IC50 (Pol I transcription; 1 h, 2008, 1 h, mean n=3, read-out: IC50 Pol I transcription): 48.8 nM
- IC50 (Pol I transcription; 1 h, ES2, 1 h, mean n=3, read-out: IC50 Pol I transcription): 55.1 nM
- IC50 (Pol I transcription; 1 h, JHOC9, 1 h, mean n=3, read-out: IC50 Pol I transcription): 268 nM
- IC50 (Pol I transcription; 1 h, JHOM1, 1 h, mean n=3, read-out: IC50 Pol I transcription): 202 nM
- IC50 (Pol I transcription; 1 h, KURAMOCHI, 1 h, mean n=3, read-out: IC50 Pol I transcription): 47.8 nM
- IC50 (Pol I transcription; 1 h, RMG2, 1 h, mean n=3, read-out: IC50 Pol I transcription): 114 nM
- IC50 (Pol I transcription; 1 h, sensitive and resistant OVCA cell lines, 1 h treatment, read-out: IC50 (concentration inhibiting Pol I transcription by 50%), range over cell lines): 38 to 285 nM
- IC50 (Pol I transcription; A2780, 1 h, mean n=3, read-out: IC50 Pol I transcription): 63.3 nM
- IC50 (Pol I transcription; COLO 704, 1 h, COLO704, 1 h, mean n=3, read-out: IC50 Pol I transcription): 96.8 nM
- IC50 (Pol I transcription; EFO-21, 1 h, EFO21, 1 h, mean n=3, read-out: IC50 Pol I transcription): 65.4 nM
- IC50 (Pol I transcription; IGROV-1, 1 h, IGROV1, 1 h, mean n=3, read-out: IC50 Pol I transcription): 38.4 nM
- IC50 (Pol I transcription; OV-90, 1 h, OV90, 1 h, mean n=3, read-out: IC50 Pol I transcription): 117 nM
- IC50 (Pol I transcription; OVCAR-3, 1 h, OVCAR3, 1 h, mean n=3, read-out: IC50 Pol I transcription): 67.4 nM
- IC50 (Pol I transcription; OVCAR-4, 1 h, OVCAR4, 1 h, mean n=3, read-out: IC50 Pol I transcription): 88.5 nM
- IC50 (Pol I transcription; OVCAR-8, 1 h, OVCAR8, 1 h, mean n=3, read-out: IC50 Pol I transcription): 97.6 nM
- IC50 (Pol I transcription; TOV112D, 1 h, TOV112D, 1 h, mean n=3, read-out: IC50 Pol I transcription): 134 nM
- 47S precursor rRNA level, fold change relative to vehicle-treated controls (Pol I transcription; JHOC9, CX-5461 0.00000001 M, 1 h): 0.9254 and 0.9049 and 1.002
- 47S precursor rRNA level, fold change relative to vehicle-treated controls (Pol I transcription; JHOC9, CX-5461 0.00000003 M, 1 h): 1.057 and 1.034 and 0.8359
- 47S precursor rRNA level, fold change relative to vehicle-treated controls (Pol I transcription; JHOC9, CX-5461 0.0000001 M, 1 h): 0.8119 and 0.7939 and 0.6945
- 47S precursor rRNA level, fold change relative to vehicle-treated controls (Pol I transcription; JHOC9, CX-5461 0.0000003 M, 1 h): 0.5763 and 0.5636 and 0.384
- 47S precursor rRNA level, fold change relative to vehicle-treated controls (Pol I transcription; JHOC9, CX-5461 0.000001 M, 1 h): 0.3587 and 0.3508 and 0.2158
- 47S precursor rRNA level, fold change relative to vehicle-treated controls (Pol I transcription; JHOC9, CX-5461 0.000003 M, 1 h): 0.08402 and 0.08216 and 0.06114
- 47S precursor rRNA level, fold change relative to vehicle-treated controls (Pol I transcription; JHOC9, CX-5461 1E-09 M, 1 h): 1.047 and 1.024 and 0.8051
- 47S precursor rRNA level, fold change relative to vehicle-treated controls (Pol I transcription; OV90, CX-5461 1E-09 M, 1 h): 1.356
- 47S precursor rRNA level, fold change relative to vehicle-treated controls (Pol I transcription; RMG2, CX-5461 0.00000001 M, 1 h): 1.019 and 0.9292 and 0.7914
- 47S precursor rRNA level, fold change relative to vehicle-treated controls (Pol I transcription; RMG2, CX-5461 0.00000003 M, 1 h): 0.8882 and 0.4552 and 0.4564
- 47S precursor rRNA level, fold change relative to vehicle-treated controls (Pol I transcription; RMG2, CX-5461 0.0000001 M, 1 h): 0.8694 and 0.414 and 0.3672
- 47S precursor rRNA level, fold change relative to vehicle-treated controls (Pol I transcription; RMG2, CX-5461 0.0000003 M, 1 h): 0.5159 and 0.1241 and 0.09886
- 47S precursor rRNA level, fold change relative to vehicle-treated controls (Pol I transcription; RMG2, CX-5461 0.000001 M, 1 h): 0.2164 and 0.1124 and 0.1026
- 47S precursor rRNA level, fold change relative to vehicle-treated controls (Pol I transcription; RMG2, CX-5461 0.000003 M, 1 h): 0.06697 and 0.02897 and 0.03341
- 47S precursor rRNA level, fold change relative to vehicle-treated controls (Pol I transcription; RMG2, CX-5461 1E-09 M, 1 h): 0.7818 and 0.717 and 0.6208
- 47S precursor rRNA level, fold change relative to vehicle-treated controls (Pol I transcription; TOV112D, CX-5461 0.00000001 M, 1 h): 1.178 and 0.9492
- 47S precursor rRNA level, fold change relative to vehicle-treated controls (Pol I transcription; TOV112D, CX-5461 0.00000003 M, 1 h): 0.9271
- 47S precursor rRNA level, fold change relative to vehicle-treated controls (Pol I transcription; TOV112D, CX-5461 0.0000001 M, 1 h): 1.01
- 47S precursor rRNA level, fold change relative to vehicle-treated controls (Pol I transcription; TOV112D, CX-5461 0.0000003 M, 1 h): 0.388 and 0.509
- 47S precursor rRNA level, fold change relative to vehicle-treated controls (Pol I transcription; TOV112D, CX-5461 0.000001 M, 1 h): 0.1661 and 0.2245 and 0.333
- 47S precursor rRNA level, fold change relative to vehicle-treated controls (Pol I transcription; TOV112D, CX-5461 0.000003 M, 1 h): 0.1644 and 0.0787 and 0.1952
- 47S precursor rRNA level, fold change relative to vehicle-treated controls (Pol I transcription; TOV112D, CX-5461 1E-09 M, 1 h): 1.079 and 1.012 and 1.217
- plasma concentrations range, lower end [1]: 584.1 nM
